Paper PMC9873984, “Membrane cholesterol regulates inhibition and substrate transport by the glycine transporter, GlyT2” (Life Science Alliance, 2023)

Columns and labels:
WT GlyT2 [1] = target: T1, WT GlyT2 (Homo sapiens, UniProt Q9Y345); test: Inhibitor concentration–responses on glycine transport currents, two-electrode voltage clamp (control and MβCD-treated oocytes); format: cell-based; design: expressed in transfected cells; host or cells: Xenopus laevis oocytes injected with in vitro transcribed RNA (pOTV vector); conditions: for Reduction of potency after cholesterol depletion: MβCD-treated vs control oocytes
T1 sequence (Q9Y345 1-797): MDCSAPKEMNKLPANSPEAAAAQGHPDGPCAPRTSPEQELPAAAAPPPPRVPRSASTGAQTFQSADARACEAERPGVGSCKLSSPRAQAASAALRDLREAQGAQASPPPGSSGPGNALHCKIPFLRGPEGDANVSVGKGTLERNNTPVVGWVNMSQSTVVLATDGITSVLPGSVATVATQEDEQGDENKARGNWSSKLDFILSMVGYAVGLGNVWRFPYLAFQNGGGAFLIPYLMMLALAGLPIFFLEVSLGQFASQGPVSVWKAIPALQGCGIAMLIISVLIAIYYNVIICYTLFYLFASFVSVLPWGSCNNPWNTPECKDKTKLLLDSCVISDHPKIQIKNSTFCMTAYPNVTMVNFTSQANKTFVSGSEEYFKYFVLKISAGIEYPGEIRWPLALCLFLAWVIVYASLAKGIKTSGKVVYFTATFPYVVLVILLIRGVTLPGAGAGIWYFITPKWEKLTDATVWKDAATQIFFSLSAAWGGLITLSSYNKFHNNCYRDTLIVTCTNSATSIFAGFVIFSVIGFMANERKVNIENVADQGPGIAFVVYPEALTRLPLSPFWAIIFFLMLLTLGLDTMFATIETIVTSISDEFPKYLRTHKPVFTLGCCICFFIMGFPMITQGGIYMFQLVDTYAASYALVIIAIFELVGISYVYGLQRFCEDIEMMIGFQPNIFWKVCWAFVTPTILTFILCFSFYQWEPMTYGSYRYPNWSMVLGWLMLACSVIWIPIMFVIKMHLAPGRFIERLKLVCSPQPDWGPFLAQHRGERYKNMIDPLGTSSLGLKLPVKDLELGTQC
Experimental: (§1) Individual oocytes were incubated at 32°C for 30 min in 15 mM MβCD or γCD, suspended in frog Ringer’s solution.
Because of the slowly reversible nature of the compounds tested, inhibitor concentration–responses were performed cumulatively. An EC50 concentration of glycine was applied until a stable transport current was reached. EC50 concentrations of glycine were used to produce reliable currents for each transporter, and as the inhibitors are non-competitive, application of varying glycine concentrations is unlikely to affect their activity. Increasing concentrations of inhibitors were co-applied with glycine with each concentration producing a distinct plateau before the subsequent concentration was applied. Inhibitor concentration–responses were limited to a maximum concentration of 3 µM to mitigate the risk of changes to the free drug concentration because of micelle formation. Currents after the plateau of each inhibitor concentration were normalized to the current produced by application of glycine alone and fit using the method of least squares: Y=Bottom+(Top−Bottom)/(1+10^[X−LogIC50]), where X is log [inhibitor], Y is current normalized to glycine in the absence of inhibitor, and Top and Bottom are the maximal and minimal plateaus, respectively. The method of least squares was constrained to have the bottom value >0 and the hill slope as −1, enabling the calculation of IC50 values and the extent of inhibition produced by the maximal concentration applied.
IC50 values are presented as the mean and 95% confidence interval, whereas inhibition values are presented as the mean ± SEM. Data sets are n ≥ 5 from two batches of oocytes.
As the inhibitors assayed here are slowly reversible, inhibitor concentration–responses were unable to be performed on the same cell after treatment with MβCD. Thus, GlyT2 expression was tested by applying a maximal glycine concentration (300 µM) before treatment with MβCD to deplete membrane cholesterol. After MβCD treatment, oocytes were returned to the electrophysiology set-up and washed for 10 min in recording buffer to remove cyclodextrins. […] After successful depletion, inhibitor concentration–responses were performed as described above (see “Inhibitor concentration–response—mutagenesis” in the Materials and Methods section).

WT GlyT2 [2] = target: T1, WT GlyT2; test: Inhibitor washout time course (reversibility), control and MβCD-treated oocytes; format: cell-based; design: expressed in transfected cells; host or cells: Xenopus laevis oocytes injected with in vitro transcribed RNA (pOTV vector)
Experimental: as §1
Reversibility of GlyT2 inhibitors was determined by applying an EC50 concentration of glycine followed by co-application of the inhibitor at an IC50 concentration once a stable current had been achieved. Inhibitors were applied for 4 min as this was sufficient time to produce substantial inhibition for each compound and allowed for their direct comparison. At the conclusion of 4 min (time 0), ND96 buffer was perfused through the recording chamber to wash the oocyte. […] Transport currents were normalized to glycine currents in the absence of inhibitor and converted to % recovery values via Y=It−It=0/Imax−It=0, where Y is % recovery, I is current in nA, Imax is the maximal current produced by the glycine EC50, and t is time in minutes. Washout kinetics were then determined by fitting % recovery values to the first-order rate equation: Y=(Y0−Plateau).e^(−Kt)+Plateau, where Y is the % recovery, Y0 is the point, which crosses the Y-axis (constrained to 0) and increases to the plateau (constrained to between 0 and 100), K is the rate constant (1/t), and t is time in minutes. […] Because of the slowly […] nature of the inhibitors, washout time courses involving cyclodextrin treatment could not be performed on the same cell. […] As these experiments could not occur on the same cell, differences in half-life and maximal recovery were analysed via an unpaired two-tailed t test.

[3] = MβCD-treated oocytes (15 mM, 30 min, 32 °C; cholesterol depleted)
[4] = WT GlyT2 in Xenopus laevis oocytes, glycine EC50 co-applied, Table S10
[5] = MβCD-treated oocytes (15 mM, 30 min, 32°C)
[6] = MβCD-treated oocytes (15 mM, 30 min, 32 °C), 3 µM
[7] = WT GlyT2 in Xenopus laevis oocytes, 3 μM, Table S10
[8] = WT, washout after 4 min IC50 concentration of inhibitor, Table S11

Row | Structure (SMILES) | Inhibition at 1 µM (column head 3 μM, footnote b) (WT GlyT2 [1]; MβCD-treated oocytes (15 mM, 30 min, 32 °C)) | IC50 (WT GlyT2 [1]; [3]) [nM] | Reduction of potency after cholesterol depletion (WT GlyT2 [1]) | Inhibition at 1 µM (column head 3 μM, footnote b) (WT GlyT2 [1]; WT GlyT2 in Xenopus laevis oocytes, Table S10) | IC50 (WT GlyT2 [1]; [4]) [nM] | Recovery at 30 min (WT GlyT2 [2]; Control oocytes, Table S8) | Recovery at 30 min (WT GlyT2 [2]; [5]) | Inhibition at 3 μM (WT GlyT2 [1]; [6]) [%] | Inhibition at 3 μM (WT GlyT2 [1]; [7]) [%] | Half-life (transport current recovery) (WT GlyT2 [2]; Control oocytes, Table S8) | Half-life (transport current recovery) (WT GlyT2 [2]; [5]) | Half-life (transport current recovery) (WT GlyT2 [2]; MβCD-treated oocytes (15 mM, 30 min, 32°C), listed as OLLeu) | Half-life (transport current recovery) (WT GlyT2 [2]; [8]) | Recovery at 30 Min (WT GlyT2 [2]; [8]) | Inhibition at 3 μM (WT GlyT2 [1]; Control oocytes, 3 µM, Table S7) [%] | IC50 (WT GlyT2 [1]; WT GlyT2 in Xenopus laevis oocytes, glycine EC50 co-applied, Table S10, listed as OLLys) [nM] | Recovery at 30 min (WT GlyT2 [2]; MβCD-treated oocytes (15 mM, 30 min, 32°C), listed as OLLys)
1 | CCCCCCCC/C=C\CCCCCCCC(=O)O[C@H](CC(=O)[O-])C[N+](C)(C)C [Oleoyl-L-Carnitine, oleoyl-L-carnitine] | 60.5 ± 5.3^b % | 800 | does not alter the potency | 55.5 ± 5.2^b % | 520 | 45.7% | 92.4% |  |  |  |  |  |  |  |  |  | 
2 | CCCCCCCC/C=C\CCCCCCCC(=O)N[C@@H](CC(C)C)C(=O)O [Oleoyl-L-Leucine, oleoyl-L-leucine] |  | 619 | 2.4 fold |  | 262 |  | 92.2 ± 3.7 % | 64.9 ± 3.8 | 69.4 ± 3.8 | 2.3 ± 0.5 min | 3.1 ± 0.3 min | unchanged | 2.3 ± 0.5 min | 51.1 ± 2.7% |  |  | 
3 | CCCCCCCC/C=C\CCCCCCCC(=O)N[C@@H](CCCCN)C(=O)O [Oleoyl-L-Lysine, oleoyl-L-lysine] |  | 269 | 2.3 fold |  | 215 |  | 63.0 ± 4.1% | 91.5 ± 1.5 | 86.6 ± 1.9 |  |  |  |  | 55.1 ± 1.5% | 93.6 ± 1.9 | 220 | no difference was observed
4 | CCCCCCCC/C=C\CCCCCCCC(=O)N[C@@H](Cc1c[nH]c2ccccc12)C(=O)O [Oleoyl-L-Tryptophan, oleoyl-L-tryptophan] |  | 130 | does not alter the potency |  | 103 | No Recovery | No Recovery | 78 ± 4 | 76.2 ± 2.3 | No Recovery | No Recovery |  | No Recovery | No Recovery |  |  | 
